Test systems include HOP-62 NSCLC; HS 578T breast; MALME-3M melanoma; NCI-H23 lung; OVCAR-5 ovarian; RXF 393 renal; SF-268 CNS; SN12C renal; SW-620 colon; UACC-257 melanoma.
Assay in all cases: NCI anticancer screen, dose series, 48 h

Each structure is given as a SMILES string.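 Briefly, cells in 96-well plates were exposed to five compound concentrations for 48 h, and endpoints were estimated by linear interpolation. GI50 marks 50% less growth. The concentration for full growth arrest is given as TGI.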

For `Cc1cc(N2CCN(C)CC2)nc(NC2CCCC(Nc3ccnc4cc(Cl)ccc34)C2)n1` (stereo not given), the GI50 in the test on HOP-62 NSCLC is 2.22 µM; in the test on HS 578T breast, 2.17 µM; in the test with MALME-3M melanoma, 1.82 µM; in the test with NCI-H23 lung, 4.19 µM; in the test with OVCAR-5 ovarian, 2.88 µM; in the test with RXF 393 renal, 1.42 µM. Besides, the GI50 in the test on SF-268 CNS is 1.97 µM; in the test on SN12C renal, 3.09 µM; with SW-620 colon, 2.48 µM; in the test with UACC-257 melanoma, 2.1 µM. Also, the TGI in the test on HOP-62 NSCLC turned out to be 6.03 µM; in the test on HS 578T breast it was 6.41 µM; with MALME-3M melanoma, 3.45 µM; in the test with NCI-H23 lung it was 17.7 µM; in the test with OVCAR-5 ovarian it was 9.88 µM; in the test with RXF 393 renal, 3.17 µM. Moreover, the TGI stood at 6.35 µM in the test on SF-268 CNS, 12.2 µM in the test on SN12C renal, 10.8 µM with SW-620 colon and 3.93 µM in the test with UACC-257 melanoma.

Turning to `O=c1cccc(C#CCCCCOC2CCCO2)o1` (stereo not given), the GI50 is 7.88 µM in the test with HOP-62 NSCLC; 7.46 µM in the test on HS 578T breast; 16.5 µM in the test with MALME-3M melanoma; 5 µM in the test on NCI-H23 lung; 19.7 µM in the test on OVCAR-5 ovarian; 6.77 µM with RXF 393 renal. Further, the GI50 in the test on SF-268 CNS was 9.14 µM; in the test with SN12C renal it was 98.6 µM; in the test on SW-620 colon, 8.96 µM; in the test on UACC-257 melanoma, 9.49 µM. Besides, the TGI was 18.2 µM with HOP-62 NSCLC; 29.2 µM with HS 578T breast; 47 µM in the test with MALME-3M melanoma; 14.9 µM in the test with NCI-H23 lung; more than 41.2 µM in the test with OVCAR-5 ovarian; 50.2 µM in the test on RXF 393 renal. The TGI in the test on SF-268 CNS is more than 77.6 µM; in the test with SN12C renal, more than 100 µM; with SW-620 colon it was more than 56.7 µM; in the test on UACC-257 melanoma, more than 20.2 µM.

For the compound `O=C1Nc2ccccc2SC1C1SC(=S)N(Cc2ccccc2)C1=O` (stereo not given), the GI50 in the test with HOP-62 NSCLC is 6.62 µM; in the test with HS 578T breast, 5.52 µM; with MALME-3M melanoma, 15.9 µM; in the test on NCI-H23 lung, 11.8 µM; with OVCAR-5 ovarian, 20.2 µM; with RXF 393 renal it was 4.21 µM. In addition, the GI50 is 3.37 µM in the test on SF-268 CNS, 4.79 µM with SN12C renal, 2.39 µM with SW-620 colon and 20.1 µM in the test with UACC-257 melanoma. The TGI is 19.7 µM in the test on HOP-62 NSCLC; 31.2 µM in the test with HS 578T breast; more than 61.5 µM in the test on MALME-3M melanoma; 35.2 µM with NCI-H23 lung; 37 µM with OVCAR-5 ovarian; more than 27.7 µM with RXF 393 renal. Moreover, the TGI with SF-268 CNS is 11.4 µM; in the test on SN12C renal, 15.2 µM; in the test on SW-620 colon, 13.6 µM; in the test with UACC-257 melanoma it was 39 µM.

As to `COc1cc2cc(C(=O)O)[nH]c2cc1OCc1ccccc1`, the GI50 is more than 100 µM with HOP-62 NSCLC; more than 100 µM in the test on HS 578T breast; 2.97 µM with MALME-3M melanoma; more than 100 µM with NCI-H23 lung; more than 100 µM in the test with OVCAR-5 ovarian; more than 100 µM in the test with RXF 393 renal. Besides, the GI50 is more than 100 µM in the test on SF-268 CNS, more than 100 µM with SN12C renal, more than 100 µM in the test on SW-620 colon and 89.4 µM with UACC-257 melanoma. Further, the TGI is more than 100 µM with HOP-62 NSCLC; more than 100 µM with HS 578T breast; 12.2 µM in the test on MALME-3M melanoma; more than 100 µM with NCI-H23 lung; more than 100 µM in the test on OVCAR-5 ovarian; more than 100 µM with RXF 393 renal. The TGI in the test with SF-268 CNS, in the test on SN12C renal, in the test with SW-620 colon and in the test with UACC-257 melanoma was more than 100 µM each time.

For the compound `c1ccc(-c2cc(-c3cc(-c4ccccn4)[nH]n3)n[nH]2)nc1`, the TGI with HOP-62 NSCLC, with HS 578T breast, in the test on MALME-3M melanoma, in the test with NCI-H23 lung, with OVCAR-5 ovarian and in the test on RXF 393 renal was more than 100 µM in each case. The TGI with SF-268 CNS, in the test with SN12C renal, in the test with SW-620 colon and in the test with UACC-257 melanoma was more than 100 µM throughout.

As for `O=C1/C(=C\c2ccccc2)c2ccccc2N1Cc1ccccc1`, the TGI was found to be 17.6 µM in the test with HOP-62 NSCLC; 20.9 µM in the test with HS 578T breast; 12.8 µM with MALME-3M melanoma; 16.8 µM with NCI-H23 lung; 15.2 µM with OVCAR-5 ovarian; 16.1 µM in the test on RXF 393 renal. For the same compound, the TGI in the test on SF-268 CNS is 14.8 µM; with SN12C renal, 28.9 µM; in the test with SW-620 colon, 15.1 µM; in the test on UACC-257 melanoma, 17.6 µM.

On to `Cc1cc(NC(=O)CCc2ccc(N3C(N)=NC(N)=NC3(C)C)cc2)ccc1S(=O)(=O)F`, for which the GI50 was 20.9 µM in the test with HOP-62 NSCLC; 28.3 µM in the test on HS 578T breast; more than 89.4 µM in the test on MALME-3M melanoma; 1.76 µM in the test with NCI-H23 lung; 0.468 µM in the test on OVCAR-5 ovarian; 1.35 µM with RXF 393 renal. In addition, the GI50 in the test on SF-268 CNS was 0.524 µM; in the test with SN12C renal it was 0.447 µM; in the test on SW-620 colon it was 0.146 µM; in the test on UACC-257 melanoma, 15.1 µM. Besides, the TGI in the test on HOP-62 NSCLC, in the test on HS 578T breast, in the test on MALME-3M melanoma, in the test with NCI-H23 lung, in the test with OVCAR-5 ovarian and in the test on RXF 393 renal was more than 100 µM in each case. Besides, the TGI in the test on SF-268 CNS, in the test with SN12C renal, with SW-620 colon and with UACC-257 melanoma was more than 100 µM each time.

On to `C[C@]12CC[C@@H]3c4ccc(O)cc4CC[C@H]3[C@@H]1CC[C@@H]2NS(=O)(=O)c1cccc(Br)c1`, for which the GI50 is 10.4 µM in the test with HOP-62 NSCLC; 4.04 µM in the test on HS 578T breast; 2.27 µM in the test with MALME-3M melanoma; 3.89 µM with NCI-H23 lung; 4.09 µM in the test on OVCAR-5 ovarian; 2.15 µM with RXF 393 renal. For the same compound, the GI50 in the test on SF-268 CNS was 3.98 µM; in the test with SN12C renal, 2.25 µM; in the test with SW-620 colon, 4.07 µM; with UACC-257 melanoma, 5.1 µM. For the same compound, the TGI in the test with HOP-62 NSCLC worked out at 22.5 µM; in the test with HS 578T breast it was 24.8 µM; with MALME-3M melanoma, 7.58 µM; in the test on NCI-H23 lung, 17 µM; in the test on OVCAR-5 ovarian, 16.3 µM; with RXF 393 renal it was 6.2 µM. In addition, the TGI was 16.6 µM in the test with SF-268 CNS, 5.73 µM in the test on SN12C renal, 18 µM in the test with SW-620 colon and 20 µM in the test with UACC-257 melanoma.

The values above are taken from PubChem BioAssay (NCI).
